Measurements from ChEMBL document CHEMBL5154816, “Structure-Based Discovery and Optimization of Furo[3,2-c]pyridin-4(5H)-one Derivatives as Potent and Second Bromodomain (BD2)-Selective Bromo and Extra Terminal Domain (BET) Inhibitors” (J Med Chem, 2022).
Each block holds one molecule with its values, some of them ahead of it.

Columns and labels:
[1] = Cytotoxicity against human HFL1 cells assessed as cell growth inhibition incubated for 72 hrs by Cell titre Glo-luminiscence cell viability assay; format: toxicity, cell-based
[2] = molecular target: T1, Bromodomain-containing protein 3 (Homo sapiens, UniProt Q15059); experiment: Inhibition of C-terminal His6-tagged BRD3 BD2 (unknown origin) using H-YSGRGK(Ac)GGK(Ac)GLGK(Ac)-GGAK(Ac)RHRK-Biotin-OH as substrate incubated for 1 hrs by HTRF assay
[3] = molecular target: T2, Bromodomain-containing protein 2 (Homo sapiens, UniProt P25440); experiment: Inhibition of C-terminal His6-tagged BRD2 BD2 (unknown origin) using H-YSGRGK(Ac)GGK(Ac)GLGK(Ac)-GGAK(Ac)RHRK-Biotin-OH as substrate incubated for 1 hrs by HTRF assay
[4] = Metabolic stability in rat liver microsomes assessed as half life at 1 uM measured up to 60 mins in presence of NADPH by HPLC-MS/MS analysis; format: ADME, Microsome
[5] = Metabolic stability in human liver microsomes assessed as half life at 1 uM measured up to 60 mins in presence of NADPH by HPLC-MS/MS analysis; format: ADME, Microsome
[6] = Metabolic stability in human liver microsomes assessed as intrinsic clearance at 1 uM measured up to 60 mins in presence of NADPH by HPLC-MS/MS analysis; format: ADME, Microsome; conditions: 1 h
[7] = Metabolic stability in rat liver microsomes assessed as intrinsic clearance at 1 uM measured up to 60 mins in presence of NADPH by HPLC-MS/MS analysis; format: ADME, Microsome; conditions: 1 h
[8] = Metabolic stability in rat hepatocytes assessed as hepatic clearance at 1 uM measured up to 60 mins in presence of NADPH by HPLC-MS/MS analysis; format: ADME, cell-based, Hepatocyte
[9] = Metabolic stability in human hepatocytes assessed as hepatic clearance at 1 uM measured up to 60 mins in presence of NADPH by HPLC-MS/MS analysis; format: ADME, cell-based, Hepatocyte
MV4-11 = experiment: Antiproliferative activity against human MV4-11 cells assessed as cell growth inhibition incubated for 120 hrs by Cell titre Glo-luminiscence cell viability assay; format: functional, cell-based
MOLM-13 = experiment: Antiproliferative activity against human MOLM-13 cells assessed as cell growth inhibition incubated for 72 hrs by Cell titre Glo-luminiscence cell viability assay; format: functional, cell-based; conditions: MOLM-13, 72 h
Kasumi 1 = experiment: Antiproliferative activity against human Kasumi 1 cells assessed as cell growth inhibition incubated for 72 hrs by Cell titre Glo-luminiscence cell viability assay; format: functional, cell-based; conditions: Kasumi 1, 72 h
THP-1 = experiment: Antiproliferative activity against human THP-1 cells assessed as cell growth inhibition incubated for 72 hrs by Cell titre Glo-luminiscence cell viability assay; format: functional, cell-based; conditions: THP-1, 72 h
CWR22R = experiment: Antiproliferative activity against human 22Rv1 cells assessed as cell growth inhibition incubated for 72 hrs by Cell titre Glo-luminiscence cell viability assay; format: functional, cell-based; conditions: 22Rv1, 72 h
HT-29 = experiment: Antiproliferative activity against human HT-29 cells assessed as cell growth inhibition incubated for 120 hrs by Cell titre Glo-luminiscence cell viability assay; format: functional, cell-based; conditions: HT-29, 120 h
DU-145 = experiment: Antiproliferative activity against AR-negative human DU-145 cells assessed as cell growth inhibition incubated for 72 hrs by Cell titre Glo-luminiscence cell viability assay; format: functional, cell-based; conditions: DU-145, 72 h
[10] = molecular target: T1, Bromodomain-containing protein 3; experiment: Binding affinity to His6-fused human BRD3 BD1 assessed as dissociation constant in PBS incubated for 1 hrs by biolayer interferometry analysis
[11] = molecular target: T1, Bromodomain-containing protein 3; experiment: Binding affinity to His6-fused BRD3 BD2 (unknown origin) assessed as dissociation constant in PBS incubated for 1 hrs by biolayer interferometry analysis
[12] = molecular target: T2, Bromodomain-containing protein 2; experiment: Binding affinity to His6-fused BRD2 BD1 (unknown origin) assessed as dissociation constant in PBS incubated for 1 hrs by biolayer interferometry analysis
[13] = molecular target: T2, Bromodomain-containing protein 2; experiment: Binding affinity to His6-fused BRD2 BD2 (unknown origin) assessed as dissociation constant in PBS incubated for 1 hrs by biolayer interferometry analysis
[14] = molecular target: T3, Bromodomain testis-specific protein (Homo sapiens, UniProt Q58F21); experiment: Binding affinity to His6-fused BRDT BD1 (unknown origin) assessed as dissociation constant in PBS incubated for 1 hrs by biolayer interferometry analysis
[15] = molecular target: T3, Bromodomain testis-specific protein; experiment: Binding affinity to His6-fused BRDT BD2 (unknown origin) assessed as dissociation constant in PBS incubated for 1 hrs by biolayer interferometry analysis
MCF7 = experiment: Antiproliferative activity against human MCF7 cells assessed as cell growth inhibition incubated for 96 hrs by Cell titre Glo-luminiscence cell viability assay; format: functional, cell-based; conditions: MCF7, 96 h
MDA-MB-231 = experiment: Antiproliferative activity against human MDA-MB-231 cells assessed as cell growth inhibition incubated for 96 hrs by Cell titre Glo-luminiscence cell viability assay; format: functional, cell-based; conditions: MDA-MB-231, 96 h
A549 = experiment: Antiproliferative activity against human A549 cells assessed as cell growth inhibition incubated for 72 hrs by Cell titre Glo-luminiscence cell viability assay; format: functional, cell-based; conditions: A549, 72 h
U2OS = experiment: Antiproliferative activity against human U2OS cells assessed as cell growth inhibition incubated for 72 hrs by Cell titre Glo-luminiscence cell viability assay; format: functional, cell-based
U-937 = experiment: Antiproliferative activity against human U-937 cells assessed as cell growth inhibition incubated for 72 hrs by Cell titre Glo-luminiscence cell viability assay; format: functional, cell-based; conditions: U-937, 72 h
HepG2 = experiment: Antiproliferative activity against human HepG2 cells assessed as cell growth inhibition incubated for 72 hrs by Cell titre Glo-luminiscence cell viability assay; format: functional, cell-based; conditions: HepG2, 72 h
BXPC-3 = experiment: Antiproliferative activity against human BxPC-3 cells assessed as cell growth inhibition incubated for 72 hrs by Cell titre Glo-luminiscence cell viability assay; format: functional, cell-based; conditions: BXPC-3, 72 h
[16] = molecular target: T4, Bromodomain-containing protein 4 (Homo sapiens, UniProt O60885); experiment: Binding affinity to His6-fused BRD4 BD1 (unknown origin) assessed as dissociation constant in PBS incubated for 1 hrs by biolayer interferometry analysis
[17] = molecular target: T4, Bromodomain-containing protein 4; experiment: Binding affinity to His6-fused BRD4 BD2 (unknown origin) assessed as dissociation constant in PBS incubated for 1 hrs by biolayer interferometry analysis

T2 sequence (P25440 whole entry): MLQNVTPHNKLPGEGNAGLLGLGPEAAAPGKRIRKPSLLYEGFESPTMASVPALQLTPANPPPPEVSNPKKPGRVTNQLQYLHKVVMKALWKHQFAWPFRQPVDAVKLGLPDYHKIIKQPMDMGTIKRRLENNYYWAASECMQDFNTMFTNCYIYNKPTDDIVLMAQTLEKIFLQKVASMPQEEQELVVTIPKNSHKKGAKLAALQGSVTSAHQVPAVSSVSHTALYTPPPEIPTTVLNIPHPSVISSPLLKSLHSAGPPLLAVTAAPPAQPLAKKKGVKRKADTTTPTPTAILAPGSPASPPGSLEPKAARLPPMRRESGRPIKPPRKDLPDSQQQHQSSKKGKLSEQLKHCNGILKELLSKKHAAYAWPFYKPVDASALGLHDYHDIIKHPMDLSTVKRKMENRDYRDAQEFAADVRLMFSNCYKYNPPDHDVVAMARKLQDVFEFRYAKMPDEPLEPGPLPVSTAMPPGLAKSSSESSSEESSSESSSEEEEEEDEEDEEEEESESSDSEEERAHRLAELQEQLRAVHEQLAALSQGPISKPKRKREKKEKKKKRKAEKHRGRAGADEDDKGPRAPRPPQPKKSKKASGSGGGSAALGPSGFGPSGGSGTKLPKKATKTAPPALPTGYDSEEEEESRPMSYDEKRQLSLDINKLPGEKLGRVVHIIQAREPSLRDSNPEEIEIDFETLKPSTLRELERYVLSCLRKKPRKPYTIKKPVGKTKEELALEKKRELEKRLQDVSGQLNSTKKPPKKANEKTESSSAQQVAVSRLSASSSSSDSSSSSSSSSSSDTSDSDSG
T1 sequence (Q15059 whole entry): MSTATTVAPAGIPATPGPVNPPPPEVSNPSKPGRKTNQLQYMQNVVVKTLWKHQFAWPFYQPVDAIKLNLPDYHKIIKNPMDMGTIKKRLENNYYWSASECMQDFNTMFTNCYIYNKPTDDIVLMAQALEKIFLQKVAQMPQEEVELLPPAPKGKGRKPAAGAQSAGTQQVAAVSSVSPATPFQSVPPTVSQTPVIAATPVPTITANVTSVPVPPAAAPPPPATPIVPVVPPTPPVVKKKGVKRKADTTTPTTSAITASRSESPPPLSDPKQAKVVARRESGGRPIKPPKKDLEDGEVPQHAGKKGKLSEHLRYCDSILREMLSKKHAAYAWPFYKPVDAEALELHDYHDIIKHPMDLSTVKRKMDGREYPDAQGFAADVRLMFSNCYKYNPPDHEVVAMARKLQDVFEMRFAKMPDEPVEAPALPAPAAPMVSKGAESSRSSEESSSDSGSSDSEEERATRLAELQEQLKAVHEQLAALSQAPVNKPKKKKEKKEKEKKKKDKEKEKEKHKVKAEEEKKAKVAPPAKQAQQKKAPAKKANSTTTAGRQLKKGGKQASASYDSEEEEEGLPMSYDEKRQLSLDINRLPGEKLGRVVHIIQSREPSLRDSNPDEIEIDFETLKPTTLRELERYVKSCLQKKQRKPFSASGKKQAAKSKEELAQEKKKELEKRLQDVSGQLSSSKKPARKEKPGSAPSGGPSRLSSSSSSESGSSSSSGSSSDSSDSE

- IC50 [2]: 5.31 nM
- IC50 [3]: 5.09 nM
- half-life at 1 µM [4]: 58.3 min
- half-life at 1 µM [5]: 15.2 min
- CLH [6]: 0.115 mL/min/g
- CLH [7]: 0.043 mL/min/g
- CLhep predicted at 1 µM [8]: 17.9 mL/min/kg
- CLH ([8]; 1 h, 1 µM): 0.043 mL/min/g
- CLhep predicted at 1 µM [9]: 17.5 mL/min/kg
- CLH ([9]; 1 h, 1 µM): 0.115 mL/min/g
- IC50 (MV4-11; Homo sapiens, MV4-11, 120 h): 0.549 nM
- IC50 (MV4-11; mv4-11): 0.55 nM
- IC50 (MOLM-13): 260 nM
- IC50 (THP-1): 1300 nM
- IC50 (HT-29): 300 nM
- IC50 (DU-145): 1000 nM
- Kd [10]: 1330 nM
- Kd [11]: 26.3 nM
- Kd [12]: 1200 nM
- Kd [13]: 23.5 nM
- Kd [14]: 3670 nM
- Kd [15]: 38.8 nM
- IC50 (MCF7): 1000 nM
- IC50 (MDA-MB-231): 1000 nM
- IC50 (A549): 1000 nM
- IC50 (U2OS): 1000 nM
- IC50 (U-937): 1000 nM
- IC50 (HepG2): 1000 nM
- IC50 (BXPC-3): 1000 nM
Compound: Cc1cc(F)cc(C)c1Oc1ccc(C(C)(C)O)cc1-c1cn(C)c(=O)c2cc(-c3cnc(C4CCCC4)[nH]3)oc12
- IC50 at 72 h [1]: 4600 nM
- IC50 (Kasumi 1): 471 nM
- IC50 (CWR22R): 232 nM

- IC50 [2]: 12.8 nM
- IC50 [3]: 11.1 nM
- Kd [16]: 4960 nM
- Kd [17]: 44.2 nM
- Kd [10]: 9780 nM
- Kd [11]: 89.5 nM
- Kd [12]: 1070 nM
- Kd [13]: 126 nM
- Kd [14]: 3310 nM
- Kd [15]: 195 nM
Compound: Cc1cc(F)cc(C)c1Oc1ccc(C(C)(C)O)cc1-c1cn(C)c(=O)c2cc(-c3cnc(C4CCCCC4)[nH]3)oc12
